Source: ChEMBL document CHEMBL2396621, “Design, synthesis and biological evaluation of 2-mercapto-3-phenethylquinazoline bearing anilide fragments as potential antitumor agents: molecular docking study” (2013)

Experiments:
Type in all cases: functional
SK-OV-3 = experiment: Cytotoxicity against human SKOV3 cells assessed as growth inhibition at 10 uM after 48 hrs by coulter counter analysis; settings: SK-OV-3, 48 h, read-out: GI
Hs-578T = experiment: Cytotoxicity against human Hs578T cells assessed as growth inhibition at 10 uM after 48 hrs by coulter counter analysis; settings: read-out: GI
NCI-H522 = experiment: Cytotoxicity against human NCI-H522 cells assessed as growth inhibition at 10 uM after 48 hrs by coulter counter analysis; settings: NCI-H522, 48 h, read-out: GI
IGROV-1 = experiment: Cytotoxicity against human IGROV1 cells assessed as growth inhibition at 10 uM after 48 hrs by coulter counter analysis; settings: IGROV-1, 48 h, read-out: GI
UO-31 = experiment: Cytotoxicity against human UO31 cells assessed as growth inhibition at 10 uM after 48 hrs by coulter counter analysis; settings: UO-31, 48 h, read-out: GI
UACC-257 = experiment: Cytotoxicity against human UACC257 cells assessed as growth inhibition at 10 uM after 48 hrs by coulter counter analysis; settings: UACC-257, 48 h, read-out: GI
T47D = experiment: Cytotoxicity against human T47D cells assessed as growth inhibition at 10 uM after 48 hrs by coulter counter analysis; settings: read-out: GI
[1] = Cytotoxicity against human EKVX cells assessed as growth inhibition at 10 uM after 48 hrs by coulter counter analysis; settings: read-out: GI
786-0 = experiment: Cytotoxicity against human 786-0 cells assessed as growth inhibition at 10 uM after 48 hrs by coulter counter analysis; settings: 786-0, 48 h, read-out: GI
SK-MEL-28 = experiment: Cytotoxicity against human SK-MEL-28 cells assessed as growth inhibition at 10 uM after 48 hrs by coulter counter analysis; settings: SK-MEL-28, 48 h, read-out: GI
OVCAR-4 = experiment: Cytotoxicity against human OVCAR4 cells assessed as growth inhibition at 10 uM after 48 hrs by coulter counter analysis; settings: OVCAR-4, 48 h, read-out: GI
UACC-62 = experiment: Cytotoxicity against human UACC62 cells assessed as growth inhibition at 10 uM after 48 hrs by coulter counter analysis; settings: UACC-62, 48 h, read-out: GI
NCI-H460 = experiment: Cytotoxicity against human NCI-H460 cells assessed as growth inhibition at 10 uM after 48 hrs by coulter counter analysis; settings: NCI-H460, 48 h, read-out: GI
OVCAR-8 = experiment: Cytotoxicity against human OVCAR8 cells assessed as growth inhibition at 10 uM after 48 hrs by coulter counter analysis; settings: OVCAR-8, 48 h, read-out: GI
BT-549 = experiment: Cytotoxicity against human BT549 cells assessed as growth inhibition at 10 uM after 48 hrs by coulter counter analysis; settings: BT-549, 48 h, read-out: GI
SF-268 = experiment: Cytotoxicity against human SF268 cells assessed as growth inhibition at 10 uM after 48 hrs by coulter counter analysis; settings: SF-268, 48 h, read-out: GI
MCF7 = experiment: Cytotoxicity against human MCF7 cells assessed as growth inhibition at 10 uM after 48 hrs by coulter counter analysis; settings: MCF7, 48 h, read-out: GI
SK-MEL-5 = experiment: Cytotoxicity against human SK-MEL-5 cells assessed as growth inhibition at 10 uM after 48 hrs by coulter counter analysis; settings: SK-MEL-5, 48 h, read-out: GI
KM12 = experiment: Cytotoxicity against human KM12 cells assessed as growth inhibition at 10 uM after 48 hrs by coulter counter analysis; settings: KM12, 48 h, read-out: GI
SNB-75 = experiment: Cytotoxicity against human SNB75 cells assessed as growth inhibition at 10 uM after 48 hrs by coulter counter analysis; settings: SNB-75, 48 h, read-out: GI
ACHN = experiment: Cytotoxicity against human ACHN cells assessed as growth inhibition at 10 uM after 48 hrs by coulter counter analysis; settings: read-out: GI
NCI-H226 = experiment: Cytotoxicity against human NCI-H226 cells assessed as growth inhibition at 10 uM after 48 hrs by coulter counter analysis; settings: NCI-H226, 48 h, read-out: GI
LOX IMVI = experiment: Cytotoxicity against human LOXIMVI cells assessed as growth inhibition at 10 uM after 48 hrs by coulter counter analysis; settings: read-out: GI
SF-295 = experiment: Cytotoxicity against human SF295 cells assessed as growth inhibition at 10 uM after 48 hrs by coulter counter analysis; settings: SF-295, 48 h, read-out: GI
COLO 205 = experiment: Cytotoxicity against human COLO205 cells assessed as growth inhibition at 10 uM after 48 hrs by coulter counter analysis; settings: COLO 205, 48 h, read-out: GI
NCI-H23 = experiment: Cytotoxicity against human NCI-H23 cells assessed as growth inhibition at 10 uM after 48 hrs by coulter counter analysis; settings: NCI-H23, 48 h, read-out: GI
HT-29 = experiment: Cytotoxicity against human HT-29 cells assessed as growth inhibition at 10 uM after 48 hrs by coulter counter analysis; settings: HT-29, 48 h, read-out: GI
U-251 = experiment: Cytotoxicity against human U251 cells assessed as growth inhibition at 10 uM after 48 hrs by coulter counter analysis; settings: U-251, 48 h, read-out: GI
OVCAR-3 = experiment: Cytotoxicity against human OVCAR3 cells assessed as growth inhibition at 10 uM after 48 hrs by coulter counter analysis; settings: OVCAR-3, 48 h, read-out: GI
PC-3 = experiment: Cytotoxicity against human PC3 cells assessed as growth inhibition at 10 uM after 48 hrs by coulter counter analysis; settings: PC-3, 48 h, read-out: GI
NCI-H322M = experiment: Cytotoxicity against human NCI-H322M cells assessed as growth inhibition at 10 uM after 48 hrs by coulter counter analysis; settings: read-out: GI
SNB-19 = experiment: Cytotoxicity against human SNB19 cells assessed as growth inhibition at 10 uM after 48 hrs by coulter counter analysis; settings: SNB-19, 48 h, read-out: GI
SF-539 = experiment: Cytotoxicity against human SF539 cells assessed as growth inhibition at 10 uM after 48 hrs by coulter counter analysis; settings: SF-539, 48 h, read-out: GI
TK-10 = experiment: Cytotoxicity against human TK10 cells assessed as growth inhibition at 10 uM after 48 hrs by coulter counter analysis; settings: TK-10, 48 h, read-out: GI
RXF 393 = experiment: Cytotoxicity against human RXF393 cells assessed as growth inhibition at 10 uM after 48 hrs by coulter counter analysis; settings: RXF 393, 48 h, read-out: GI
DU-145 = experiment: Cytotoxicity against human DU145 cells assessed as growth inhibition at 10 uM after 48 hrs by coulter counter analysis; settings: DU-145, 48 h, read-out: GI
HCT-116 = experiment: Cytotoxicity against human HCT116 cells assessed as growth inhibition at 10 uM after 48 hrs by coulter counter analysis; settings: HCT-116, 48 h, read-out: GI

| SMILES | inhibition of growth at 10 µM (SK-OV-3) [%] | inhibition of growth at 10 µM (Hs-578T) [%] | inhibition of growth at 10 µM (NCI-H522) [%] | inhibition of growth at 10 µM (IGROV-1) [%] | inhibition of growth at 10 µM (UO-31) [%] | inhibition of growth at 10 µM (UACC-257) [%] | inhibition of growth at 10 µM (T47D) [%] | inhibition of growth at 10 µM [1] [%] | inhibition of growth at 10 µM (786-0) [%] | inhibition of growth at 10 µM (SK-MEL-28) [%] | inhibition of growth at 10 µM (OVCAR-4) [%] | inhibition of growth at 10 µM (UACC-62) [%] | inhibition of growth at 10 µM (NCI-H460) [%] | inhibition of growth at 10 µM (OVCAR-8) [%] | inhibition of growth at 10 µM (BT-549) [%] | inhibition of growth at 10 µM (SF-268) [%] | inhibition of growth at 10 µM (MCF7) [%] | inhibition of growth at 10 µM (SK-MEL-5) [%] | inhibition of growth at 10 µM (KM12) [%] | inhibition of growth at 10 µM (SNB-75) [%] | also measured |
| --- | --- | --- | --- | --- | --- | --- | --- | --- | --- | --- | --- | --- | --- | --- | --- | --- | --- | --- | --- | --- | --- |
| O=C(CSc1nc2ccccc2c(=O)n1CCc1ccccc1)Nc1ccc(F)cc1 | 25 | 16 | 31 | 16 | 31 | < 10 | 25 | 24 | < 10 | < 10 | < 10 | 25 | < 10 | < 10 | 10 | < 10 | 18 | 16 | < 10 | < 10 | inhibition of growth at 10 µM (ACHN): 16%; inhibition of growth at 10 µM (NCI-H226): < 10%; inhibition of growth at 10 µM (LOX IMVI): 18%; inhibition of growth at 10 µM (SF-295): 13%; inhibition of growth at 10 µM (COLO 205): < 10%; inhibition of growth at 10 µM (NCI-H23): 12%; inhibition of growth at 10 µM (HT-29): 10%; inhibition of growth at 10 µM (U-251): 17%; inhibition of growth at 10 µM (OVCAR-3): < 10%; inhibition of growth at 10 µM (PC-3): 16%; inhibition of growth at 10 µM (NCI-H322M): 17%; inhibition of growth at 10 µM (SNB-19): < 10%; inhibition of growth at 10 µM (SF-539): < 10%; inhibition of growth at 10 µM (TK-10): < 10%; inhibition of growth at 10 µM (RXF 393): 13%; inhibition of growth at 10 µM (DU-145): < 10%; inhibition of growth at 10 µM (HCT-116): 19% |
| Cc1ccc(NC(=O)CSc2nc3ccccc3c(=O)n2CCc2ccccc2)cc1 | 20 | 41 | 22 | 20 | < 10 | 17 | 44 | 29 | < 10 | 22 | < 10 | 20 | 22 | 27 | < 10 | 19 | 23 | 22 | 11 | 12 | inhibition of growth at 10 µM (ACHN): 21%; inhibition of growth at 10 µM (NCI-H226): < 10%; inhibition of growth at 10 µM (LOX IMVI): 14%; inhibition of growth at 10 µM (SF-295): 12%; inhibition of growth at 10 µM (COLO 205): 15%; inhibition of growth at 10 µM (NCI-H23): < 10%; inhibition of growth at 10 µM (HT-29): < 10%; inhibition of growth at 10 µM (U-251): 11%; inhibition of growth at 10 µM (OVCAR-3): < 10%; inhibition of growth at 10 µM (PC-3): 14%; inhibition of growth at 10 µM (NCI-H322M): 15%; inhibition of growth at 10 µM (SNB-19): 22%; inhibition of growth at 10 µM (SF-539): 19%; inhibition of growth at 10 µM (TK-10): < 10%; inhibition of growth at 10 µM (RXF 393): 10%; inhibition of growth at 10 µM (DU-145): < 10%; inhibition of growth at 10 µM (HCT-116): 13% |
| COc1ccc(NC(=O)CSc2nc3ccccc3c(=O)n2CCc2ccccc2)cc1 | 25 | 49 | < 10 | 18 | < 10 | 14 | < 10 | 25 | < 10 | 11 | < 10 | 13 | 25 | 40 | 10 | 47 | 11 | 10 | 16 | 72 | inhibition of growth at 10 µM (ACHN): < 10%; inhibition of growth at 10 µM (NCI-H226): < 10%; inhibition of growth at 10 µM (LOX IMVI): < 10%; inhibition of growth at 10 µM (SF-295): 21%; inhibition of growth at 10 µM (COLO 205): < 10%; inhibition of growth at 10 µM (NCI-H23): < 10%; inhibition of growth at 10 µM (HT-29): < 10%; inhibition of growth at 10 µM (U-251): 29%; inhibition of growth at 10 µM (OVCAR-3): 10%; inhibition of growth at 10 µM (PC-3): < 10%; inhibition of growth at 10 µM (NCI-H322M): 19%; inhibition of growth at 10 µM (SNB-19): 41%; inhibition of growth at 10 µM (SF-539): 10%; inhibition of growth at 10 µM (TK-10): 10%; inhibition of growth at 10 µM (RXF 393): 21%; inhibition of growth at 10 µM (DU-145): < 10%; inhibition of growth at 10 µM (HCT-116): 13% |
| COc1cc(OC(=O)CSc2nc3ccccc3c(=O)n2CCc2ccccc2)cc(OC)c1OC | < 10 | < 10 | < 10 | 11 | 37 | < 10 | 26 | 36 | < 10 | < 10 | < 10 | 23 | 26 | < 10 | 10 | < 10 | 34 | < 10 | < 10 | 12 | inhibition of growth at 10 µM (ACHN): 10%; inhibition of growth at 10 µM (NCI-H226): 16%; inhibition of growth at 10 µM (LOX IMVI): < 10%; inhibition of growth at 10 µM (SF-295): 13%; inhibition of growth at 10 µM (COLO 205): < 10%; inhibition of growth at 10 µM (NCI-H23): < 10%; inhibition of growth at 10 µM (HT-29): < 10%; inhibition of growth at 10 µM (U-251): 26%; inhibition of growth at 10 µM (OVCAR-3): < 10%; inhibition of growth at 10 µM (PC-3): < 10%; inhibition of growth at 10 µM (NCI-H322M): 11%; inhibition of growth at 10 µM (SNB-19): < 10%; inhibition of growth at 10 µM (SF-539): < 10%; inhibition of growth at 10 µM (TK-10): < 10%; inhibition of growth at 10 µM (RXF 393): < 10%; inhibition of growth at 10 µM (DU-145): < 10%; inhibition of growth at 10 µM (HCT-116): 20% |
